Laboratory results taken from ChEMBL document CHEMBL1201862, “PubChem BioAssay data set” (2004).
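Cultured in 96-well plates, cells were exposed to test compound for 48 hours across five concentrations. The concentration for 50% growth inhibition is given as GI50.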 The source made the active and inactive calls. No stated cut-off is given here; in the data, active = GI50 up to about 1.1 µM and inactive = higher.

How the values were obtained:
Assay in all cases: DTP human tumour cell line panel, 48 h
SF-539 = system: SF-539
SK-MEL-28 = system: SK-MEL-28
UACC-62 = system: UACC-62
MDA-MB-231 = system: MDA-MB-231
OVCAR-4 = system: OVCAR-4
HT-29 = system: HT-29
NCI-H226 = system: NCI-H226
T47D = system: T47D
OVCAR-5 = system: OVCAR-5
NCI-H23 = system: NCI-H23
SF-268 = system: SF-268
BT-549 = system: BT-549
U-251 = system: U-251
SK-MEL-5 = system: SK-MEL-5
M14 = system: M14
SR = system: SR
SK-MEL-2 = system: SK-MEL-2
MDA-N = system: MDA-N
NCI/ADR-RES = system: NCI/ADR-RES
Hs-578T = system: Hs-578T

Compound | GI50 (SF-539) | GI50 (SK-MEL-28) | GI50 (UACC-62) | GI50 (MDA-MB-231) | GI50 (OVCAR-4) | GI50 (HT-29) | GI50 (NCI-H226) | GI50 (T47D) | GI50 (OVCAR-5) | GI50 (NCI-H23) | GI50 (SF-268) | GI50 (BT-549) | GI50 (U-251) | GI50 (SK-MEL-5) | GI50 (M14) | GI50 (SR) | GI50 (SK-MEL-2) | GI50 (MDA-N) | GI50 (NCI/ADR-RES) | GI50 (Hs-578T)
O=c1oc2ccccc2cc1-c1cn2ccccc2n1 | 4.17 µM (inactive) | 4.4 µM (inactive) | 4.65 µM (inactive) | 6.4 µM (inactive) | 4.08 µM (inactive) | 12.6 µM (inactive) | 8.43 µM (inactive) | 14.6 µM (inactive) | 21.7 µM (inactive) | 12.1 µM (inactive) | 2.96 µM (inactive) | 11.9 µM (inactive) | 2.33 µM (inactive) | 6.18 µM (inactive) | 8.51 µM (inactive) | 3.85 µM (inactive) | 5 µM (inactive) | 4.88 µM (inactive) | 3.15 µM (inactive) | 4.5 µM (inactive)
O=C(O)c1c2c(cc3c1CC(Cc1ccccc1)C3=O)CCC2 (stereo not given) | 76.6 µM (inactive) | > 100 µM (inactive) | > 100 µM (inactive) | 30.5 µM (inactive) | > 100 µM (inactive) | 57.8 µM (inactive) | > 100 µM (inactive) | > 100 µM (inactive) | > 100 µM (inactive) | > 100 µM (inactive) | > 100 µM (inactive) | > 100 µM (inactive) | > 100 µM (inactive) | > 100 µM (inactive) | > 100 µM (inactive) | 67.5 µM (inactive) | > 100 µM (inactive) | > 100 µM (inactive) | > 100 µM (inactive) | > 100 µM (inactive)
CSC1=C(SC)SC(=C2SC3=C(SC(=C4SCCS4)S3)S2)S1 | > 100 µM (inactive) | > 100 µM (inactive) | > 100 µM (inactive) | > 100 µM (inactive) | > 100 µM (inactive) | > 100 µM (inactive) | > 100 µM (inactive) | > 100 µM (inactive) | > 100 µM (inactive) | > 100 µM (inactive) | > 100 µM (inactive) | > 100 µM (inactive) | > 100 µM (inactive) | > 100 µM (inactive) | > 100 µM (inactive) | > 100 µM (inactive) | > 100 µM (inactive) | > 100 µM (inactive) | > 100 µM (inactive) | > 100 µM (inactive)
NC(=O)NC(=O)c1ccc(NC(=O)CBr)cc1 | 2.18 µM (inactive) | 3.2 µM (inactive) | 1.86 µM (inactive) | 2.49 µM (inactive) | 1.66 µM (inactive) | 1.73 µM (inactive) | 3.33 µM (inactive) | 1.67 µM (inactive) | 2.75 µM (inactive) | 2.06 µM (inactive) | 1.4 µM (inactive) | 2.1 µM (inactive) | 0.984 µM (active) | 1.62 µM (inactive) | 11.8 µM (inactive) | 0.333 µM (active) | 1.99 µM (inactive) | 2.07 µM (inactive) | 2.56 µM (inactive) | 2.31 µM (inactive)
Cc1cc2[nH]c(Cl)c(/C=C3\C(=O)Nc4ccccc43)c2cc1O | 1.17 µM (inactive) | 9.71 µM (inactive) | 1.23 µM (inactive) | 3.09 µM (inactive) | 7.52 µM (inactive) | 4.07 µM (inactive) | 0.542 µM (active) | 10.9 µM (inactive) | 6.46 µM (inactive) | 2.32 µM (inactive) | 4.69 µM (inactive) | 6.53 µM (inactive) | 2.26 µM (inactive) | 1.2 µM (inactive) | 2.88 µM (inactive) | 0.228 µM (active) | 2.1 µM (inactive) | 0.379 µM (active) | 3.25 µM (inactive) | 4.18 µM (inactive)
O=C1Nc2ccccc2/C1=C1/Nc2ccccc2/C1=N/OCCOCCO | 2.88 µM (inactive) | 5.05 µM (inactive) | 1.44 µM (inactive) | 5.93 µM (inactive) | 7.19 µM (inactive) | 1.45 µM (inactive) | 0.547 µM (active) | 2.89 µM (inactive) | 4.62 µM (inactive) | 3.07 µM (inactive) | 3.19 µM (inactive) | 2.38 µM (inactive) | 3.29 µM (inactive) | 1.57 µM (inactive) | 1.9 µM (inactive) | 1.68 µM (inactive) | 0.644 µM (active) | 3.24 µM (inactive) | 4.17 µM (inactive) | 0.592 µM (active)
CCCC(=O)Nc1cn(COC)c(C(=O)N2C[C@H]3C[C@@]34C2=CC(=O)c2[nH]cc(C)c24)n1 | 4.98 µM (inactive) | 12 µM (inactive) | 5.92 µM (inactive) | 13.1 µM (inactive) | 9.12 µM (inactive) | 7.35 µM (inactive) | 9.86 µM (inactive) | 1.88 µM (inactive) | 12.4 µM (inactive) | 2.02 µM (inactive) | 5.12 µM (inactive) | 9.2 µM (inactive) | 4.42 µM (inactive) | 4.06 µM (inactive) | 8.15 µM (inactive) | 2.2 µM (inactive) | 14 µM (inactive) | 9.16 µM (inactive) | 6.21 µM (inactive) | 15.4 µM (inactive)
CC1CCCCCC(=O)c2c(O)cc(O)cc2CC(=O)O1 (stereo not given) [CURVULARIN] | > 100 µM (inactive) | > 100 µM (inactive) | > 100 µM (inactive) | > 100 µM (inactive) | > 100 µM (inactive) | > 100 µM (inactive) | > 100 µM (inactive) | 59.2 µM (inactive) | > 100 µM (inactive) | 48.9 µM (inactive) | > 100 µM (inactive) | 54.1 µM (inactive) | > 100 µM (inactive) | > 100 µM (inactive) | > 100 µM (inactive) | 44.5 µM (inactive) | 76.6 µM (inactive) | > 100 µM (inactive) | > 100 µM (inactive) | > 100 µM (inactive)
CN(C)CCCN1c2ccccc2C(C)(C)c2ccccc21 [DIMETACRINE] | 15.2 µM (inactive) | 15.4 µM (inactive) | 13.1 µM (inactive) | 14.7 µM (inactive) | 13.9 µM (inactive) | 11.8 µM (inactive) | 15.6 µM (inactive) | 17.2 µM (inactive) | 14.1 µM (inactive) | 16.3 µM (inactive) | 13.3 µM (inactive) | 14.9 µM (inactive) | 12.4 µM (inactive) | 13.4 µM (inactive) | 15.5 µM (inactive) | 13.1 µM (inactive) | 16.5 µM (inactive) | 14.2 µM (inactive) | 17.1 µM (inactive) | 15.1 µM (inactive)
